In patent publication US5132424A, “Pyrazolo-pyrrolo-pyrimidine-diones” (The Upjohn Company, priority 1991, dated 1992):

What was measured:
[1] = system: ACAT enzyme; details: known drug; cited from earlier work
[2] = system: ACAT enzyme; assay: ACAT Inhibition Assay (inhibition of cholesterol esterification in cultured Fu5AH rat hepatoma cells); assay type: cell-based; set-up: key to Activity: Active: Compounds with ACAT inhibiting activity equal to, or greater than, that of chloropromazine are declared active; details: for % Inhib. of Chol. Esterf.: Fu5AH cells, 18 hours; for Activity: compared with chlorpromazine
Text: A standard in vitro test system designed to identify compounds capable of inhibitory the ACAT enzyme in cultured Fu5AH rat hepatoma cells which was used to test the compounds of this invention, among others, is described hereinbelow.
Since the ACAT enzyme in Fu5AH cells is similar if not identical to the ACAT enzyme in arterial tissue in valuable, warm-blooded animals, including humans, the Fu5AH cell test represents a more efficient, simplified and economical means of screening for ACAT inhibitors than similar assays which depend upon the use of arterial tissue and arterial subfractions as the source of the ACAT enzyme.
For our in vitro test the Fu5AH rat hepatoma cell line was selected as our source of the ACAT enzyme since this particular cell line mimicked important characteristics of human and valuable animal arterial cells during the development of atherosclerosis. The Fu5AH cells accumulate cholesterol extensively when incubated with hyperlipemic plasma proteins; more importantly, Fu5HA cells accumulated the cholesterol predominantly as the esterified form through the action of the ACAT enzyme. See Rothblat, G. H., "Cholesteryl Ester Metabolism in Tissue Culture Cell. I. Accumulation in Fu5AH Rat Hepatoma Cells", Lipids, 9, (1974) page 526.
The Fu5AH cells used in our in vitro assay were first acquired from G. H. Rothblat, supra, of the Medical College of Pa.
The Fu5AH rat hepatoma cell-line was derived from the Reuber H-35 rat hepatoma. (See Reuber, M.D., "A Transplantable Bilesecreting Hepatocellular Carcinoa in the Rat", J. Natl., Cancer Inst., 26 (1961), page 891. The cell-line is maintained in Eagle's Minimal Essential Medium (MEM, GiBCO) supplemented with 5% bovine fetal calf serum. Incubation is at 36° C. in an atmosphere of 5% CO2 in air (Hotpack, Model 351922). Cells from stock cultures, grown to confluency in 25 cm^2 flasks (Falcon) containing 10 ml. medium, are detached with 0.25% trypsin in 1% ethylenediaminetetraacetic acid (EDTA) (Gibco), diluted 1:10 with MEM and mixed by agitation through a pipette which serves to disrupt the cellular clumps. Stock cultures are replenished with fresh medium at 3 to 4 day intervals.
One ml. aliquots of the diluted stock suspension described above are then transferred to 60 mm. dishes (Falcon) containing four ml. MEM and the seeded cells are allowed to grow to confluence (three days). At confluence, the medium is removed by aspiration and the cells are washed once with MEM. Five ml. of MEM supplemented with 5% hyperlipemic rabbit serum (HRS) (HRS is obtained from male New Zealane rabbits fed Purina Chow® rabbit feed supplemented with 1% cholesterol and 3% peanut oil (w/w/w/) for two to three weeks. Pooled sera from two or more rabbits are filtered through a 0.45 mμ filter (Nalgene) and stored frozen in convenient aliquots until used) and containing 1μ Ci/ml of ^3 H-cholesterol are then added to the dishes as the experimental (assay) medium. The experimental medium is labeled with 1,2-^3 H(N)-cholesterol (sp. act. approx. 40-60 Ci/mol, New Zealand Nuclear Corp.) prior to its addition to the confluent cultures and is prepared as follows. Five ml. of HRS is diluted with approximately 20 ml of MEM and the mixture is labeled by the addition of 100 μCi ^3 H-cholesterol dissolved in 100 μl absolute ethyl alcohol. The resulting mixture is then incubated for four hours at 36° C. to permit equilibration of the labeled cholesterol with the serum lipoprotein-cholesterol. After the equilibration period, the mixture is diluted to 100 ml. with MEM and used as the labeled assay medium. Following the addition of the labeled medium to the dishes, dimethylsulfoxide solutions of the test substances and the positive standard chloropromazine HCl (1 mg/ml) are added to the cultures in volumes of 25, 50, […]; control cultures receive equivalent volumes of dimethylsufoxide alone. […]

Row | SMILES | ACAT enzyme inhibition (in words) [1] | % Inhib. of Chol. Esterf. ([2]; 5.0 ug/ml) [%] | Activity ([2]; 5.0 ug/ml) | % Inhib. of Chol. Esterf. ([2]; 10.0 ug/ml) [%] | Activity ([2]; 10.0 ug/ml) | % Inhib. of Chol. Esterf. ([2]; 15.0 ug/ml) [%] | Activity ([2]; 15.0 ug/ml) | % Inhib. of Chol. Esterf. ([2]; 25.0 ug/ml (so in the source)) [%] | Activity ([2]; 25.0 ug/ml (so in the source)) | activity in the ACAT enzyme screen (in words) ([2]; starting material)
1 | CC(C)NC[C@H](O)COc1cccc2ccccc12 (racemic) [propanolol] | ACAT enzyme inhibiting activity | – | – | – | – | – | – | – | – | –
2 | O=C1c2c(c(=O)n3nc(-c4ccccc4)cc3n2CC(O)c2ccccc2)CN1C1CCCCC1 (stereo not drawn) [Example 14, 6-Cyclohexyl-6,7-dihydro-4-(2-hydroxy-2-phenylethyl)-2-phenyl-4H-oyrazolo[1,5-a] pyrrolo[3,4-d]pyrimidine-5,8-dione] | – | 49.6 | Active | 65.9 | Active | 40.2 | Inactive | – | – | –
3 | CCOc1ccc(-c2cc3n(Cc4ccccc4)c4c(c(=O)n3n2)CN(C2CCCCC2)C4=O)cc1 [Example 6, 6-Cyclohexyl-6,7-dihydro-2-(4-ethoxyphenyl)-4-(phenylmethyl)-(4H)-pyrazolo[1,5-a]pyrrolo[3,4-d]pyrimidine-5,8-dione] | – | 49.8 | Active | 75.4 | Active | 87.2 | Active | – | – | –
4 | CN1C(=O)CN=C(c2ccccc2)c2cc(Cl)ccc21 [diazepam] | ACAT enzyme inhibiting activity | – | – | – | – | – | – | – | – | –
5 | O=C(Cn1c2c(c(=O)n3nc(-c4ccc(Cl)cc4)cc13)CN(C1CCCCC1)C2=O)c1ccccc1 [Example 11, 4-(Benzoylmethyl)-2-(4-chlorophenyl)-6-cyclohexyl-6,7-dihydro-4H-pyrazolo[1,5-a]pyrrolo[3,4-d]pyrimidine-5,8-dione] | – | 78.2 | Active | 84.5 | Active | – | – | 89.2 | Active | –
6 | O=C1c2c(c(=O)n3nc(-c4ccccc4)cc3n2Cc2ccccc2)CN1Cc1ccccc1 [Example 8, 4,6-Bis(phenylmethyl)-6,7-dihydro-2-phenyl-4H-pyrazolo[1,5-a]pyrrolo[3,4-d]pyrimidine-5,8-dione] | – | 60.8 | Active | 89.5 | Active | 92.3 | Active | – | – | –
7 | O=C1c2[nH]c3cc(-c4ccccc4)nn3c(=O)c2CN1C1CCCCC1 [6-Cyclohexyl-4,7-dihydro-2-phenyl-5H-pyrazolo[1,5-a]pyrrolo[3,4-d]pyrimidine-5,8(6H)-dione, reference compound] | – | – | – | – | – | – | – | – | – | inactive
8 | O=C1c2c(c(=O)n3ncc(-c4ccccc4)c3n2Cc2ccccc2)CN1C1CCCCC1 [Example 10, 6-Cyclohexyl-6,7-dihydro-3-phenyl-4-(phenylmethyl)-4H-pyrazolo-[1,5-a]pyrrolo[3,4-d]-pyrimidine-5,8-dione] | – | 34.4 | Active | 20.9 | Inactive | 9.1 | Inactive | – | – | –
9 | COC(=O)C1=C(C)NC(C)=C(C(=O)OC)C1c1ccccc1[N+](=O)[O-] [nifedipine] | inhibit the ACAT enzyme | – | – | – | – | – | – | – | – | –
10 | COc1ccc(CCN(C)CCCC(C#N)(c2ccc(OC)c(OC)c2)C(C)C)cc1OC (stereo not drawn) [verapamil] | inhibit the ACAT enzyme | – | – | – | – | – | – | – | – | –
11 | C=CCOc1ccc(-c2cc3n(Cc4ccccc4)c4c(c(=O)n3n2)CN(C2CCCCC2)C4=O)cc1 [Example 15, 6-Cyclohexyl-6,7-dihydro-2-[4-(2-propenyloxy)phenyl]-4-phenylmethyl-4H-pyrazolo[1,5-a]pyrrolo[3,4-d]pyrimidine-5,8-dione] | – | 36.0 | Active | 65.3 | Active | 84.3 | Active | – | – | –
12 | O=C1c2c(c(=O)n3nc(-c4ccc(O)cc4)cc3n2Cc2ccccc2)CN1C1CCCCC1 [Example 16, 6-Cyclohexyl-6,7-dihydro-2-(4-hydroxyphenyl)-4-phenyl-methyl-4H-pyrazolo[1,5-a]pyrrolo[3,4-d]pyrimidine-5,8-dione] | – | 4.3 | Inactive | 32.7 | Inactive | 66.5 | Active | – | – | –
13 | CCCCCCn1c2c(c(=O)n3nc(-c4ccccc4)cc13)CN(C1CCCCC1)C2=O [Example 3, 6-Cyclohexyl-6,7-dihydro-4-hexyl-2-phenyl-4H-pyrazolo[1,5-a]pyrrolo[3,4-d]pyrimidine-5,8-dione] | – | 43.4 | Active | 48.2 | Active | 49.2 | Active | – | – | –
14 | O=C1c2c(c(=O)n3nc(-c4ccccc4)cc3n2Cc2ccccc2)CN1c1ccccc1 [Example 7, 6,7-Dihydro-2,6-diphenyl-4-(phenylmethyl)-4H-pyrazolo[1,5-a]pyrrolo[3,4-d]-pyrimidine-5,8-dione] | – | 21.2 | Active | 17.6 | Inactive | 15.0 | Inactive | – | – | –
15 | COc1ccc([C@@H]2Sc3ccccc3N(CCN(C)C)C(=O)[C@@H]2OC(C)=O)cc1 [diltiazem] | inhibit the ACAT enzyme | – | – | – | – | – | – | – | – | –
16 | O=C1c2c(c(=O)n3nc(-c4ccccc4)cc3n2Cc2ccccc2)CCN1C1CCCCC1 [Example 9, 6-Cyclohexyl-2-phenyl-4-(phenylmethyl)-5,6,7,8-tetrahydro-4H-pyrazolo[1,5-a]pyrido[3,4-d]pyrimidine-5,9-dione] | – | 53.2 | Active | 82.1 | Active | 89.8 | Active | – | – | –
